# In patent US6420557B1, “Crystalline therapeutic agent” (Pfizer Inc., priority 2000, dated 2002):
# Legend:
# [1] = early investigations of the crystals (hygroscopicity, stability, formulation properties); format: physicochemical; details: crystals having the XRD pattern of Table 1
# [2] = target: cGMP PDE5 (Homo sapiens, UniProt O76074); details: statement in words, as detailed in WO 01/27113; cited from earlier work
smiles,measurement,setting,value
"CCOc1ncc(S(=O)(=O)N2CCN(CC)CC2)cc1-c1nc2c(CC)n(CCOC)nc2c(=O)[nH]1 [Example 1, 1-{6-ethoxy-5-[3-ethyl-6,7-dihydro-2-(2-methoxyethyl)-7-oxo-2H-pyrazolo[4,3-d]pyrimidin-5-yl]-3-pyridylsulfonyl}-4-ethylpiperazine]",formulation properties,[1],good formulation properties
same,hygroscopicity,[1],non-hygroscopic
same,stability,[1],stable
same,cGMP PDE5 inhibitor potency and selectivity,[2],potent and selective
